Tests used:
S. aureus Newman [1] = test: fitness (endpoint OD595 vs no drug) (fraction); higher = more growth
In short: (§1)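 Growth medium was TSB, LB Lennox or CY, and plates were kept at 37 °C. Inoculation was at OD595 0.01 in 384-well plates, at 30 µl per well or 55 µl for S. pneumoniae. OD595 was monitored every 30 min for 14 h and background-subtracted using the first reading. Fitness is the optical density on entering stationary phase divided by the robust mean of no-drug controls, with values capped at 1.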

S. aureus DSM 20231 [2] = test: as above
In short: as §1

B. subtilis 168 [3] = test: as above
In short: as §1

S. pneumoniae D39V [4] = test: as above
In short: as §1

S. aureus Newman [5] = test: Bliss interaction score (quartile over a dose matrix) (fitness difference); higher = more antagonism (negative = synergy)
In short: (§2)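 The Bliss score is observed minus expected fitness, where expected fitness is the product of the single-drug fitness values inferred from the combination data. Fitness is the OD595 at the onset of stationary phase over the plate's robust no-drug mean, capped at 1. Scores are summarised by quartiles over technical, biological and donor/recipient replicates.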

S. aureus DSM 20231 [6] = test: as above
In short: as §2

B. subtilis 168 [7] = test: as above
In short: as §2

S. pneumoniae D39V [8] = test: as above
In short: as §2
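Wherever Bliss interaction score (quartile over a dose matrix) is given: first quartile when negative (synergy) and third quartile when positive (antagonism).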
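Wherever fitness (endpoint OD595 vs no drug) is given: OD595 on entry to stationary phase over no-drug wells; at most 1.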

CO/N=C(\C(=O)N[C@@H]1C(=O)N2C(C(=O)O)=C(COC(C)=O)CS[C@H]12)c1csc(N)n1 [Cefotaxime] + Cc1cc(NS(=O)(=O)c2ccc(N)cc2)no1 [Sulfamethoxazol]
fitness, one replicate
Conditions	partner 0.5 µg/mL	partner 1 µg/mL	partner 2 µg/mL	partner 4 µg/mL	partner 8 µg/mL
B. subtilis 168 [3], first compound 0.00775 µg/mL	–	0.802	0.77	0.757	–
B. subtilis 168 [3], first compound 0.0155 µg/mL	–	0.719	0.638	0.6	–
B. subtilis 168 [3], first compound 0.031 µg/mL	–	0.552	0.513	0.475	–
B. subtilis 168 [3], first compound 0.0625 µg/mL	0.664	0.494	0.438	–	–
B. subtilis 168 [3], first compound 0.125 µg/mL	0.395	0.402	0.275	–	–
B. subtilis 168 [3], first compound 0.25 µg/mL	0.325	0.0239	0.201	–	–
S. aureus DSM 20231 [2], first compound 0.039 µg/mL	–	0.724	0.758	0.714	–
S. aureus Newman [1], first compound 0.039 µg/mL	–	0.86	–	–	0.922
S. aureus Newman [1], first compound 0.078 µg/mL	–	–	–	–	0.877
S. aureus Newman [1], first compound 0.156 µg/mL	–	–	–	–	0.823
S. aureus Newman [1], first compound 0.312 µg/mL	–	–	–	–	0.588
S. aureus Newman [1], first compound 0.625 µg/mL	–	0.0508	0.0123	0.0053	–
S. aureus Newman [1], first compound 1.25 µg/mL	–	0.0193	0.0269	0.0043	–
S. aureus Newman [1], first compound 2.5 µg/mL	–	0.0252	0.0046	0.0076	–

fitness
Conditions	partner 1 µg/mL	partner 2 µg/mL	partner 4 µg/mL
B. subtilis 168 [3], first compound 0.5 µg/mL	0.221	0.187	0.211
B. subtilis 168 [3], first compound 1 µg/mL	0.115	0.0739	0.0877
B. subtilis 168 [3], first compound 2 µg/mL	0.11	0.0944	0.0802
S. aureus DSM 20231 [2], first compound 0.078 µg/mL	0.737	0.735	0.74
S. aureus DSM 20231 [2], first compound 0.156 µg/mL	0.681	0.686	0.687
S. aureus DSM 20231 [2], first compound 0.312 µg/mL	0.619	0.605	0.631
S. aureus Newman [1], first compound 0.039 µg/mL	–	0.944	0.886
S. aureus Newman [1], first compound 0.078 µg/mL	0.776	0.821	0.833
S. aureus Newman [1], first compound 0.156 µg/mL	0.687	0.752	0.748
S. aureus Newman [1], first compound 0.312 µg/mL	0.408	0.535	0.547
S. pneumoniae D39V [4], first compound 0.0018 µg/mL	0.945	0.969	0.913
S. pneumoniae D39V [4], first compound 0.0035 µg/mL	0.984	0.955	0.943
S. pneumoniae D39V [4], first compound 0.007 µg/mL	0.894	0.91	0.888

Conditions	Bliss interaction score
B. subtilis 168 [7]	0.054
S. aureus DSM 20231 [6]	0.046
S. aureus Newman [5]	0.0672
S. pneumoniae D39V [8]	0.0301

C[C@@H]1O[C@@H]1P(=O)(O)O [Fosfomycin] + Cc1cc(NS(=O)(=O)c2ccc(N)cc2)no1 [Sulfamethoxazol]
fitness
Conditions	partner 1 µg/mL	partner 2 µg/mL	partner 4 µg/mL
B. subtilis 168 [3], first compound 1.562 µg/mL	0.652	0.673	0.679
B. subtilis 168 [3], first compound 3.124 µg/mL	0.548	0.557	0.516
B. subtilis 168 [3], first compound 6.248 µg/mL	0.489	0.378	0.379
S. aureus DSM 20231 [2], first compound 0.781 µg/mL	0.709	0.696	0.678
S. aureus DSM 20231 [2], first compound 1.562 µg/mL	0.547	0.581	0.581
S. aureus DSM 20231 [2], first compound 3.124 µg/mL	0.49	0.503	0.509
S. aureus Newman [1], first compound 0.781 µg/mL	0.627	0.705	0.71
S. aureus Newman [1], first compound 1.562 µg/mL	0.513	0.572	0.496
S. aureus Newman [1], first compound 3.124 µg/mL	0.211	–	0.141
S. pneumoniae D39V [4], first compound 1.25 µg/mL	0.957	0.935	0.955
S. pneumoniae D39V [4], first compound 2.5 µg/mL	0.918	0.925	0.943
S. pneumoniae D39V [4], first compound 5 µg/mL	0.757	0.756	0.78

fitness, one replicate
Conditions	first compound 0.781 µg/mL	first compound 1.562 µg/mL	first compound 3.124 µg/mL	first compound 6.248 µg/mL
B. subtilis 168 [3], partner 0.5 µg/mL	–	0.794	0.686	0.592
S. aureus Newman [1], partner 8 µg/mL	0.782	0.733	0.519	–

Conditions	Bliss interaction score
B. subtilis 168 [7]	-0.0756
S. aureus DSM 20231 [6]	-0.0688
S. aureus Newman [5]	0.0933
S. pneumoniae D39V [8]	-0.0416

CO/N=C(\C(=O)N[C@@H]1C(=O)N2C(C(=O)O)=C(COC(C)=O)CS[C@H]12)c1csc(N)n1 [Cefotaxime] + O=C(O[C@@H]1Cc2c(O)cc(O)cc2O[C@@H]1c1cc(O)c(O)c(O)c1)c1cc(O)c(O)c(O)c1 [EGCG]
fitness, one replicate
Conditions	first compound 0.00775 µg/mL	first compound 0.0155 µg/mL	first compound 0.031 µg/mL	first compound 0.039 µg/mL	first compound 0.0625 µg/mL	first compound 0.125 µg/mL	first compound 0.25 µg/mL	first compound 0.312 µg/mL
B. subtilis 168 [3], partner 6.25 µg/mL	0.847	0.723	0.588	–	0.532	0.462	0.403	–
B. subtilis 168 [3], partner 12.5 µg/mL	0.466	0.341	0.284	–	0.59	0.521	0.475	–
B. subtilis 168 [3], partner 25 µg/mL	0.192	0.129	0.133	–	0.547	0.484	0.32	–
S. aureus Newman [1], partner 12.5 µg/mL	–	–	–	0.751	–	–	–	0.317
S. aureus Newman [1], partner 25 µg/mL	–	–	–	0.786	–	–	–	0.268
S. aureus Newman [1], partner 50 µg/mL	–	–	–	0.726	–	–	–	0.14

fitness
Conditions	partner 6.25 µg/mL	partner 12.5 µg/mL	partner 25 µg/mL	partner 50 µg/mL
B. subtilis 168 [3], first compound 0.5 µg/mL	0.265	0.293	0.103	–
B. subtilis 168 [3], first compound 1 µg/mL	0.119	0.166	0.0631	–
B. subtilis 168 [3], first compound 2 µg/mL	0.0879	0.142	0.0481	–
S. aureus DSM 20231 [2], first compound 0.039 µg/mL	–	0.696	0.702	0.651
S. aureus DSM 20231 [2], first compound 0.078 µg/mL	–	0.655	0.704	0.625
S. aureus DSM 20231 [2], first compound 0.156 µg/mL	–	0.685	0.697	0.746
S. aureus DSM 20231 [2], first compound 0.312 µg/mL	–	0.736	0.622	–
S. aureus Newman [1], first compound 0.078 µg/mL	–	0.594	0.615	0.573
S. aureus Newman [1], first compound 0.156 µg/mL	–	0.574	0.391	0.564
S. aureus Newman [1], first compound 0.625 µg/mL	–	0.198	0.071	0.0397
S. aureus Newman [1], first compound 1.25 µg/mL	–	0.0285	0.0144	0.0286
S. aureus Newman [1], first compound 2.5 µg/mL	–	0.0123	0.0423	0.0268
S. pneumoniae D39V [4], first compound 0.0018 µg/mL	–	0.977	0.978	0.939
S. pneumoniae D39V [4], first compound 0.0035 µg/mL	–	0.989	≥ 1	0.955
S. pneumoniae D39V [4], first compound 0.007 µg/mL	–	0.889	0.914	0.883

Conditions	Bliss interaction score
B. subtilis 168 [7]	0.112
S. aureus DSM 20231 [6]	0.0466
S. aureus Newman [5]	0.0329
S. pneumoniae D39V [8]	0.07

COc1cccc2c1C(=O)c1c(O)c3c(c(O)c1C2=O)C[C@@](O)(C(=O)CO)C[C@@H]3O[C@H]1C[C@H](N)[C@H](O)[C@H](C)O1 [Doxorubicin] + CN(N=O)C(=O)N[C@@H](C=O)[C@@H](O)[C@H](O)[C@H](O)CO [Streptozotocin]
fitness
Conditions	first compound 0.25 µg/mL	first compound 0.5 µg/mL	first compound 0.625 µg/mL	first compound 1 µg/mL	first compound 1.25 µg/mL	first compound 2.5 µg/mL
B. subtilis 168 [3], partner 0.15 µg/mL	–	–	0.961	–	0.957	0.663
B. subtilis 168 [3], partner 0.3 µg/mL	–	–	≥ 1	–	0.956	0.582
B. subtilis 168 [3], partner 0.6 µg/mL	–	–	0.993	–	0.939	0.627
S. aureus DSM 20231 [2], partner 0.15 µg/mL	–	–	0.762	–	0.828	0.787
S. aureus DSM 20231 [2], partner 0.3 µg/mL	–	–	0.741	–	0.726	0.746
S. aureus DSM 20231 [2], partner 0.6 µg/mL	–	–	0.631	–	0.651	0.595
S. aureus Newman [1], partner 0.15 µg/mL	–	–	0.702	–	0.7	0.709
S. aureus Newman [1], partner 0.3 µg/mL	–	–	0.656	–	0.68	0.646
S. aureus Newman [1], partner 0.6 µg/mL	–	–	0.607	–	0.604	0.541
S. pneumoniae D39V [4], partner 1.2 µg/mL	0.919	0.929	–	0.852	–	–
S. pneumoniae D39V [4], partner 2.4 µg/mL	0.898	0.919	–	0.866	–	–
S. pneumoniae D39V [4], partner 4.8 µg/mL	0.966	0.972	–	0.91	–	–

Conditions	Bliss interaction score
B. subtilis 168 [7]	0.0771
S. aureus DSM 20231 [6]	-0.0251
S. aureus Newman [5]	0.11
S. pneumoniae D39V [8]	0.0618

— the supplement of paper PMC10627819
